Measured values published in PMC8214221, “Sequence determinants in the cathelicidin LL-37 that promote inflammation via presentation of RNA to scavenger receptors” (The Journal of Biological Chemistry, 2021).
Residues, ends and D or L forms follow the SMILES beside them.

What was measured:
[1] = system: normal human epidermal keratinocytes (NHEKs); test: LDH release cytotoxicity assay in keratinocytes; assay type: cell-based; settings: minimal concentration giving 50% LDH release by NHEKs
Summary of the method: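 Normal human epidermal keratinocytes were exposed to LL-34 parent and alanine-substituted peptides. Cytotoxicity was read as LDH release in fresh culture supernatants after treatment, using a commercial kit, and reported as the minimal concentration showing toxicity.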

[2] = system: NHEKs, IL-6 secretion in response to U1 dsRNA; test: IL-6 secretion ELISA in NHEKs; assay type: cell-based, human; settings: U1 dsRNA 2.5 μg/ml + peptide 2 μM, 18 h, n = 3
Procedure: Protein levels of human IL-6 were analyzed from cell supernatant with ELISA (n = 3). Corresponding MIC values of LL-34 peptides L1A–R34A against Staphylococcus aureus USA300 are shown in the heat map. B, human dermal endothelial cells (HDMECs) were treated with either U1 dsRNA (2.5 μg/ml) or a combination of U1 dsRNA (2.5 μg/ml) and LL-34 peptides (Pep 1–Pep 34 and Pep–parent LL-34) at 2 μM for 18 h. IL-6 ELISA results are shown (n = 3). Green bars denote loss of IL-6 protein secretion compared with parent control shown in red. C, helical wheel plot for LL-34. Amino acids with green circles denote specific residues where replacement with an alanine caused the loss of IL-6 secretion compared with parent LL-34 peptide in NHEKs cotreated with U1 dsRNA. D, in the helical wheel plot for LL-34, circled green amino acids indicate that a substitution caused a loss of vetting in HDMEC. E–H, NHEKs were treated with LL-34-parent peptide (LL-34-P), LL-34-F5A, LL-34-I24A, LL-34-F27A, and LL-34-L31A at 2 μM, either individually or in combination with U1 dsRNA (2.5 μg/ml) for 8 h. Gene expression of IL-6, IFNB1, TSLP, and CXCL10 was assessed with qRT-PCR. GAPDH was used as a reference gene (n = 3) (∗p < 0.05; ∗∗∗∗p < 0.0001). One way-ANOVA was used. IL-6, interleukin 6; LL-34, 34-amino acid peptide; MIC, minimum inhibitory concentration, ns, not significant.
We hypothesized that sequential replacement of each amino acid in LL-34 peptide with a neutral amino acid alanine might reveal the amino acid residues critical for its ability to induce inflammation in response to U1 dsRNA. First, we treated NHEKs and human dermal microvascular endothelial cells (HDMECs) with LL-34 parent peptide and each of the 34 mutants at 2 μM for 18 h and measured the secretion of interleukin 6 (IL-6) in the supernatant by ELISA (Fig. S1, A and B). […] We then treated both NHEKs and HDMECs with a combination of U1 dsRNA (2.5 μg/ml) and the LL-34 parent/mutant peptides at 2 μM for 18 h and measured IL-6 secretion (Fig. 1, A–C). […] A similar pattern of IL-6 release was observed when HDMECs were treated with the peptide library and U1 dsRNA (Fig. 1B).
Cell culture supernatant was frozen at −80 °C until use for analysis. ELISA was performed with sandwich ELISA kits (R&D Systems) and quantified on a Spectramax Absorbance reader (Molecular Biosystems). Data were analyzed with GraphPad.

Compound | Minimal cytotoxic concentration in NHEK (LD50) [1] | IL-6 protein secretion, cotreatment with U1 dsRNA, vs U1 dsRNA + LL-34 parent [2]
CC[C@H](C)[C@H](NC(=O)[C@H](CCCCN)NC(=O)[C@H](CCC(=O)O)NC(=O)[C@H](CCCCN)NC(=O)[C@H](CO)NC(=O)[C@H](CCCCN)NC(=O)[C@H](CCCNC(=N)N)NC(=O)[C@H](C)NC(=O)[C@H](Cc1ccccc1)NC(=O)[C@H](CC(=O)O)NC(=O)CNC(=O)[C@H](CC(C)C)NC(=O)[C@@H](N)CC(C)C)C(=O)NCC(=O)N[C@@H](CCCCN)C(=O)N[C@@H](CCC(=O)O)C(=O)N[C@@H](Cc1ccccc1)C(=O)N[C@@H](CCCCN)C(=O)N[C@@H](CCCNC(=N)N)C(=O)N[C@H](C(=O)N[C@H](C(=O)N[C@@H](CCC(N)=O)C(=O)N[C@@H](CCCNC(=N)N)C(=O)N[C@H](C(=O)N[C@@H](CCCCN)C(=O)N[C@@H](CC(=O)O)C(=O)N[C@@H](Cc1ccccc1)C(=O)N[C@@H](CC(C)C)C(=O)N[C@@H](CCCNC(=N)N)C(=O)N[C@@H](CC(N)=O)C(=O)N[C@@H](CC(C)C)C(=O)N[C@H](C(=O)N1CCC[C@H]1C(=O)N[C@@H](CCCNC(=N)N)C(=O)O)C(C)C)[C@@H](C)CC)C(C)C)[C@@H](C)CC [LL-34—F6A] (H-LLGDFARKSKEKIGKEFKRIVQRIKDFLRNLVPR-OH) | 5 µM | reduced secretion of IL-6 protein
CC[C@H](C)[C@H](NC(=O)[C@H](CCCCN)NC(=O)[C@H](CCC(=O)O)NC(=O)[C@H](CCCCN)NC(=O)[C@H](CO)NC(=O)[C@H](CCCCN)NC(=O)[C@H](CCCNC(=N)N)NC(=O)[C@H](Cc1ccccc1)NC(=O)[C@H](Cc1ccccc1)NC(=O)[C@H](CC(=O)O)NC(=O)CNC(=O)[C@H](CC(C)C)NC(=O)[C@@H](N)CC(C)C)C(=O)NCC(=O)N[C@@H](CCCCN)C(=O)N[C@@H](CCC(=O)O)C(=O)N[C@@H](C)C(=O)N[C@@H](CCCCN)C(=O)N[C@@H](CCCNC(=N)N)C(=O)N[C@H](C(=O)N[C@H](C(=O)N[C@@H](CCC(N)=O)C(=O)N[C@@H](CCCNC(=N)N)C(=O)N[C@H](C(=O)N[C@@H](CCCCN)C(=O)N[C@@H](CC(=O)O)C(=O)N[C@@H](Cc1ccccc1)C(=O)N[C@@H](CC(C)C)C(=O)N[C@@H](CCCNC(=N)N)C(=O)N[C@@H](CC(N)=O)C(=O)N[C@@H](CC(C)C)C(=O)N[C@H](C(=O)N1CCC[C@H]1C(=O)N[C@@H](CCCNC(=N)N)C(=O)O)C(C)C)[C@@H](C)CC)C(C)C)[C@@H](C)CC [LL-34—F17A] (H-LLGDFFRKSKEKIGKEAKRIVQRIKDFLRNLVPR-OH) | 5 µM | reduced secretion of IL-6 protein
CC[C@H](C)[C@H](NC(=O)[C@H](CCCCN)NC(=O)[C@H](CCC(=O)O)NC(=O)[C@H](CCCCN)NC(=O)[C@H](CO)NC(=O)[C@H](CCCCN)NC(=O)[C@H](CCCNC(=N)N)NC(=O)[C@H](Cc1ccccc1)NC(=O)[C@H](Cc1ccccc1)NC(=O)[C@H](CC(=O)O)NC(=O)CNC(=O)[C@H](CC(C)C)NC(=O)[C@@H](N)CC(C)C)C(=O)NCC(=O)N[C@@H](CCCCN)C(=O)N[C@@H](CCC(=O)O)C(=O)N[C@@H](Cc1ccccc1)C(=O)N[C@@H](CCCCN)C(=O)N[C@@H](CCCNC(=N)N)C(=O)N[C@@H](C)C(=O)N[C@H](C(=O)N[C@@H](CCC(N)=O)C(=O)N[C@@H](CCCNC(=N)N)C(=O)N[C@H](C(=O)N[C@@H](CCCCN)C(=O)N[C@@H](CC(=O)O)C(=O)N[C@@H](Cc1ccccc1)C(=O)N[C@@H](CC(C)C)C(=O)N[C@@H](CCCNC(=N)N)C(=O)N[C@@H](CC(N)=O)C(=O)N[C@@H](CC(C)C)C(=O)N[C@H](C(=O)N1CCC[C@H]1C(=O)N[C@@H](CCCNC(=N)N)C(=O)O)C(C)C)[C@@H](C)CC)C(C)C [LL-34—I20A] (H-LLGDFFRKSKEKIGKEFKRAVQRIKDFLRNLVPR-OH) | 5 µM | reduced secretion of IL-6 protein
CC[C@H](C)[C@H](NC(=O)[C@H](C)NC(=O)[C@H](CCC(N)=O)NC(=O)[C@@H](NC(=O)[C@@H](NC(=O)[C@H](CCCNC(=N)N)NC(=O)[C@H](CCCCN)NC(=O)[C@H](Cc1ccccc1)NC(=O)[C@H](CCC(=O)O)NC(=O)[C@H](CCCCN)NC(=O)CNC(=O)[C@@H](NC(=O)[C@H](CCCCN)NC(=O)[C@H](CCC(=O)O)NC(=O)[C@H](CCCCN)NC(=O)[C@H](CO)NC(=O)[C@H](CCCCN)NC(=O)[C@H](CCCNC(=N)N)NC(=O)[C@H](Cc1ccccc1)NC(=O)[C@H](Cc1ccccc1)NC(=O)[C@H](CC(=O)O)NC(=O)CNC(=O)[C@H](CC(C)C)NC(=O)[C@@H](N)CC(C)C)[C@@H](C)CC)[C@@H](C)CC)C(C)C)C(=O)N[C@@H](CCCCN)C(=O)N[C@@H](CC(=O)O)C(=O)N[C@@H](Cc1ccccc1)C(=O)N[C@@H](CC(C)C)C(=O)N[C@@H](CCCNC(=N)N)C(=O)N[C@@H](CC(N)=O)C(=O)N[C@@H](CC(C)C)C(=O)N[C@H](C(=O)N1CCC[C@H]1C(=O)N[C@@H](CCCNC(=N)N)C(=O)O)C(C)C [LL-34—R23A] (H-LLGDFFRKSKEKIGKEFKRIVQAIKDFLRNLVPR-OH) | 10 µM | reduced secretion of IL-6 protein
CC[C@H](C)[C@H](NC(=O)[C@H](CCCCN)NC(=O)[C@H](CCC(=O)O)NC(=O)[C@H](CCCCN)NC(=O)[C@H](CO)NC(=O)[C@H](CCCCN)NC(=O)[C@H](CCCNC(=N)N)NC(=O)[C@H](Cc1ccccc1)NC(=O)[C@H](Cc1ccccc1)NC(=O)[C@H](CC(=O)O)NC(=O)CNC(=O)[C@H](CC(C)C)NC(=O)[C@@H](N)CC(C)C)C(=O)NCC(=O)N[C@@H](CCCCN)C(=O)N[C@@H](CCC(=O)O)C(=O)N[C@@H](Cc1ccccc1)C(=O)N[C@@H](CCCCN)C(=O)N[C@@H](CCCNC(=N)N)C(=O)N[C@H](C(=O)N[C@H](C(=O)N[C@@H](CCC(N)=O)C(=O)N[C@@H](CCCNC(=N)N)C(=O)N[C@H](C(=O)N[C@@H](CCCCN)C(=O)N[C@@H](CC(=O)O)C(=O)N[C@@H](Cc1ccccc1)C(=O)N[C@@H](CC(C)C)C(=O)N[C@@H](CCCNC(=N)N)C(=O)N[C@@H](CC(N)=O)C(=O)N[C@@H](CC(C)C)C(=O)N[C@@H](C)C(=O)N1CCC[C@H]1C(=O)N[C@@H](CCCNC(=N)N)C(=O)O)[C@@H](C)CC)C(C)C)[C@@H](C)CC [LL-34—V32A] (H-LLGDFFRKSKEKIGKEFKRIVQRIKDFLRNLAPR-OH) | 10 µM | reduced secretion of IL-6 protein
